# Species: Rattus norvegicus
# Assay: DrugMatrix - Regimen: Daily Repeat
# Format: toxicity, organism-based, Sprague-Dawley
# Parameters: regimen Daily Repeat, gender Male, age 6-8 weeks
# Conditions: in vivo, po, route oral GAVAGE, vehicle 100 % WATER; for ABSOLUTE BASOPHIL / ABSOLUTE EOSINOPHIL / ABSOLUTE LYMPHOCYTE / ABSOLUTE MONOCYTE / ABSOLUTE SEGMENTED NEUTROPHIL / BASOPHIL / EOSINOPHIL / ERYTHROCYTE COUNT / HEMATOCRIT / HEMOGLOBIN / LEUKOCYTE COUNT / LYMPHOCYTE / MEAN CORPUSCULAR HEMOGLOBIN / MEAN CORPUSCULAR HEMOGLOBIN CONCENTRATION / MEAN CORPUSCULAR VOLUME / MONOCYTE / NEUTROPHIL / NUCLEATED RED BLOOD CELLS / PLATELET COUNT: tissue Blood; for ALANINE AMINOTRANSFERASE / ALBUMIN / ALKALINE PHOSPHATASE / ASPARTATE AMINOTRANSFERASE / BLOOD UREA NITROGEN / CARBON DIOXIDE / CHLORIDE / CHOLESTEROL / CREATINE PHOSPHOKINASE / CREATININE / GLUCOSE / LACTATE DEHYDROGENASE / LIPASE / PHOSPHORUS / SODIUM / TOTAL BILIRUBIN / TOTAL PROTEIN / URIC ACID: tissue Plasma
# [1] = 200 mg/kg, 120 h, dose level Low, time 5 day
# [2] = 1100 mg/kg, 72 h, dose level High, time 3 day
# [3] = 1100 mg/kg, 120 h, dose level High, time 5 day
smiles,measurement,setting,value
CC1(C)S[C@@H]2[C@H](NC(=O)[C@H](N)c3ccc(O)cc3)C(=O)N2[C@H]1C(=O)O [AMOXICILLIN],ABSOLUTE BASOPHIL,[1],0 CELLS/uL
same,ABSOLUTE EOSINOPHIL,[1],0 CELLS/uL
same,ABSOLUTE LYMPHOCYTE,[1],6222 CELLS/uL
same,ABSOLUTE MONOCYTE,[1],124 CELLS/uL
same,ABSOLUTE SEGMENTED NEUTROPHIL,[1],487.33 CELLS/uL
same,BASOPHIL,[1],0%
same,EOSINOPHIL,[1],0%
same,ERYTHROCYTE COUNT,[1],5.52 x10E6/uL
same,HEMATOCRIT,[1],34.17%
same,HEMOGLOBIN,[1],13.17 G/DL
same,LEUKOCYTE COUNT,[1],6.83 x10E3/uL
same,LYMPHOCYTE,[1],90.67%
same,MEAN CORPUSCULAR HEMOGLOBIN,[1],23.87 pg
same,MEAN CORPUSCULAR HEMOGLOBIN CONCENTRATION,[1],38.53 G/DL
same,MEAN CORPUSCULAR VOLUME,[1],61.87 fL
same,MONOCYTE,[1],2%
same,NEUTROPHIL,[1],7.33%
same,NUCLEATED RED BLOOD CELLS,[1],0 /100WBC
same,PLATELET COUNT,[1],1169.67 x10E3/uL
same,ALANINE AMINOTRANSFERASE,[1],61.67 u/L
same,ALBUMIN,[1],4.07 G/DL
same,ALKALINE PHOSPHATASE,[1],419.67 u/L
same,ASPARTATE AMINOTRANSFERASE,[1],85.33 u/L
same,BLOOD UREA NITROGEN,[1],19 mg/dL
same,CARBON DIOXIDE,[1],35 mmol/L
same,CHLORIDE,[1],99.33 MEQ/L
same,CHOLESTEROL,[1],64.33 mg/dL
same,CREATINE PHOSPHOKINASE,[1],366.67 u/L
same,CREATININE,[1],0.22 mg/dL
same,GLUCOSE,[1],133.67 mg/dL
same,LACTATE DEHYDROGENASE,[1],112.33 u/L
same,LIPASE,[1],9 u/L
same,PHOSPHORUS,[1],11.07 mg/dL
same,SODIUM,[1],143.8 MEQ/L
same,TOTAL BILIRUBIN,[1],0.17 mg/dL
same,TOTAL PROTEIN,[1],6.17 G/DL
same,URIC ACID,[1],0.73 mg/dL
same,ABSOLUTE BASOPHIL,[2],0 CELLS/uL
same,ABSOLUTE EOSINOPHIL,[2],0 CELLS/uL
same,ABSOLUTE LYMPHOCYTE,[2],13682.33 CELLS/uL
same,ABSOLUTE MONOCYTE,[2],492.67 CELLS/uL
same,ABSOLUTE SEGMENTED NEUTROPHIL,[2],958.33 CELLS/uL
same,BASOPHIL,[2],0%
same,EOSINOPHIL,[2],0%
same,ERYTHROCYTE COUNT,[2],6.16 x10E6/uL
same,HEMATOCRIT,[2],39.43%
same,HEMOGLOBIN,[2],14.47 G/DL
same,LEUKOCYTE COUNT,[2],15.13 x10E3/uL
same,LYMPHOCYTE,[2],90%
same,MEAN CORPUSCULAR HEMOGLOBIN,[2],23.5 pg
same,MEAN CORPUSCULAR HEMOGLOBIN CONCENTRATION,[2],36.7 G/DL
same,MEAN CORPUSCULAR VOLUME,[2],64.03 fL
same,MONOCYTE,[2],3.33%
same,NEUTROPHIL,[2],6.67%
same,NUCLEATED RED BLOOD CELLS,[2],0 /100WBC
same,PLATELET COUNT,[2],1311.33 x10E3/uL
same,ALANINE AMINOTRANSFERASE,[2],52.33 u/L
same,ALBUMIN,[2],4.43 G/DL
same,ALKALINE PHOSPHATASE,[2],365.33 u/L
same,ASPARTATE AMINOTRANSFERASE,[2],83 u/L
same,BLOOD UREA NITROGEN,[2],16.33 mg/dL
same,CARBON DIOXIDE,[2],32 mmol/L
same,CHLORIDE,[2],101.33 MEQ/L
same,CHOLESTEROL,[2],79.67 mg/dL
same,CREATINE PHOSPHOKINASE,[2],343 u/L
same,CREATININE,[2],0.2 mg/dL
same,GLUCOSE,[2],138 mg/dL
same,LACTATE DEHYDROGENASE,[2],129.67 u/L
same,LIPASE,[2],9.33 u/L
same,PHOSPHORUS,[2],12.4 mg/dL
same,SODIUM,[2],142.9 MEQ/L
same,TOTAL BILIRUBIN,[2],0.17 mg/dL
same,TOTAL PROTEIN,[2],6.17 G/DL
same,URIC ACID,[2],2.13 mg/dL
same,ABSOLUTE BASOPHIL,[3],0 CELLS/uL
same,ABSOLUTE EOSINOPHIL,[3],0 CELLS/uL
same,ABSOLUTE LYMPHOCYTE,[3],7076 CELLS/uL
same,ABSOLUTE MONOCYTE,[3],76 CELLS/uL
same,ABSOLUTE SEGMENTED NEUTROPHIL,[3],448 CELLS/uL
same,BASOPHIL,[3],0%
same,EOSINOPHIL,[3],0%
same,ERYTHROCYTE COUNT,[3],6.01 x10E6/uL
same,HEMATOCRIT,[3],37.2%
same,HEMOGLOBIN,[3],14.1 G/DL
same,LEUKOCYTE COUNT,[3],7.6 x10E3/uL
same,LYMPHOCYTE,[3],92.33%
same,MEAN CORPUSCULAR HEMOGLOBIN,[3],23.5 pg
same,MEAN CORPUSCULAR HEMOGLOBIN CONCENTRATION,[3],37.9 G/DL
same,MEAN CORPUSCULAR VOLUME,[3],61.93 fL
same,MONOCYTE,[3],1%
same,NEUTROPHIL,[3],6.67%
same,NUCLEATED RED BLOOD CELLS,[3],0 /100WBC
same,PLATELET COUNT,[3],1145.67 x10E3/uL
same,ALANINE AMINOTRANSFERASE,[3],59.33 u/L
same,ALBUMIN,[3],4.43 G/DL
same,ALKALINE PHOSPHATASE,[3],434 u/L
same,ASPARTATE AMINOTRANSFERASE,[3],94.33 u/L
same,BLOOD UREA NITROGEN,[3],17.33 mg/dL
same,CARBON DIOXIDE,[3],33 mmol/L
same,CHLORIDE,[3],100.33 MEQ/L
same,CHOLESTEROL,[3],75 mg/dL
same,CREATINE PHOSPHOKINASE,[3],622.67 u/L
same,CREATININE,[3],0.12 mg/dL
same,GLUCOSE,[3],113 mg/dL
same,LACTATE DEHYDROGENASE,[3],161.33 u/L
same,LIPASE,[3],9 u/L
same,PHOSPHORUS,[3],10.27 mg/dL
same,SODIUM,[3],144.67 MEQ/L
same,TOTAL BILIRUBIN,[3],0.13 mg/dL
same,TOTAL PROTEIN,[3],5.67 G/DL
same,URIC ACID,[3],0.8 mg/dL

# Reference: ChEMBL document CHEMBL3885881, “DrugMatrix”
